Measurements from PubChem BioAssay AID1259407 (Chemical Carcinogenesis Research Information System (CCRIS), 2018).
Activity calls are given as the source filed them. The rule behind the calls is not given here.

Test system: CCRIS mutagenicity, Ames/micronucleus/aberration tests
Experiment: CCRIS mutagenicity studies

Measured: mutagenic call

CC(=O)CN(CC(C)=O)N=O
inactive: Test System: AMES SALMONELLA TYPHIMURIUM, Strain/Indicator: TA100, Metabolic Activation: NONE, Method: PREINCUBATION inactive; negative | Test System: AMES SALMONELLA TYPHIMURIUM, Strain/Indicator: TA104, Metabolic Activation: RAT, LIVER, S-9, AROCLOR 1254, Method: PREINCUBATION inactive; negative
active: Test System: AMES SALMONELLA TYPHIMURIUM, Strain/Indicator: TA100, Metabolic Activation: HAMSTER, LIVER, S-9, 3-METHYLCHOLANTHRENE, Method: PREINCUBATION active; positive | Test System: AMES SALMONELLA TYPHIMURIUM, Strain/Indicator: TA100, Metabolic Activation: HAMSTER, LIVER, S-9, PHENOBARBITAL, Method: PREINCUBATION active; positive | Test System: AMES SALMONELLA TYPHIMURIUM, Strain/Indicator: TA100, Metabolic Activation: HAMSTER, LIVER, S-9, Method: PREINCUBATION active; positive | Test System: AMES SALMONELLA TYPHIMURIUM, Strain/Indicator: TA100, Metabolic Activation: HUMAN, LIVER, S-9, Method: PREINCUBATION active; positive | Test System: AMES SALMONELLA TYPHIMURIUM, Strain/Indicator: TA100, Metabolic Activation: MONKEY, LIVER, S-9, Method: PREINCUBATION active; positive | Test System: AMES SALMONELLA TYPHIMURIUM, Strain/Indicator: TA100, Metabolic Activation: MOUSE, LIVER, S-9, 3-METHYLCHOLANTHRENE, Method: PREINCUBATION active; positive | Test System: AMES SALMONELLA TYPHIMURIUM, Strain/Indicator: TA100, Metabolic Activation: MOUSE, LIVER, S-9, PHENOBARBITAL, Method: PREINCUBATION active; positive | Test System: AMES SALMONELLA TYPHIMURIUM, Strain/Indicator: TA100, Metabolic Activation: MOUSE, LIVER, S-9, Method: PREINCUBATION active; positive | Test System: AMES SALMONELLA TYPHIMURIUM, Strain/Indicator: TA100, Metabolic Activation: RABBIT, LIVER, S-9, Method: PREINCUBATION active; positive | Test System: AMES SALMONELLA TYPHIMURIUM, Strain/Indicator: TA100, Metabolic Activation: RAT, LIVER, CYTOSOL, PCB, Method: PREINCUBATION active; positive | Test System: AMES SALMONELLA TYPHIMURIUM, Strain/Indicator: TA100, Metabolic Activation: RAT, LIVER, MICROSOMES AND CYTOSOL, PCB, Method: PREINCUBATION active; positive | Test System: AMES SALMONELLA TYPHIMURIUM, Strain/Indicator: TA100, Metabolic Activation: RAT, LIVER, MICROSOMES AND G6PDH, PCB, Method: PREINCUBATION active; positive | Test System: AMES SALMONELLA TYPHIMURIUM, Strain/Indicator: TA100, Metabolic Activation: RAT, LIVER, MICROSOMES, PCB, Method: PREINCUBATION active; positive | Test System: AMES SALMONELLA TYPHIMURIUM, Strain/Indicator: TA100, Metabolic Activation: RAT, LIVER, S-9 (HEATED), PCB, Method: PREINCUBATION active; positive | Test System: AMES SALMONELLA TYPHIMURIUM, Strain/Indicator: TA100, Metabolic Activation: RAT, LIVER, S-9, 3-METHYLCHOLANTHRENE, Method: PREINCUBATION active; positive | Test System: AMES SALMONELLA TYPHIMURIUM, Strain/Indicator: TA100, Metabolic Activation: RAT, LIVER, S-9, AROCLOR 1254, Method: PREINCUBATION active; positive | Test System: AMES SALMONELLA TYPHIMURIUM, Strain/Indicator: TA100, Metabolic Activation: RAT, LIVER, S-9, N-BENZYLIMIDAZOLE, Method: PREINCUBATION active; positive | Test System: AMES SALMONELLA TYPHIMURIUM, Strain/Indicator: TA100, Metabolic Activation: RAT, LIVER, S-9, PCB, Method: PREINCUBATION active; positive | Test System: AMES SALMONELLA TYPHIMURIUM, Strain/Indicator: TA100, Metabolic Activation: RAT, LIVER, S-9, PHENOBARBITAL, Method: PREINCUBATION active; positive | Test System: AMES SALMONELLA TYPHIMURIUM, Strain/Indicator: TA100, Metabolic Activation: RAT, LIVER, S-9, Method: PREINCUBATION active; positive | Test System: AMES SALMONELLA TYPHIMURIUM, Strain/Indicator: TA100, Metabolic Activation: RAT, LIVER, S-9 WITHOUT NADP+, PCB, Method: PREINCUBATION active; positive | Test System: AMES SALMONELLA TYPHIMURIUM, Strain/Indicator: TA100, Method: PREINCUBATION active; positive | Test System: AMES SALMONELLA TYPHIMURIUM, Strain/Indicator: TA1535, Metabolic Activation: RAT, LIVER, S-9, AROCLOR 1254, Method: PREINCUBATION active; positive | Test System: AMES SALMONELLA TYPHIMURIUM, Strain/Indicator: TA1975, Metabolic Activation: RAT, LIVER, S-9, AROCLOR 1254, Method: PREINCUBATION active; positive | Test System: CHINESE HAMSTER V-79, Strain/Indicator: V-79/6-THIOGUANINE, Metabolic Activation: HAMSTER, PANCREAS, DUCT CELL-MEDIATED, Method: STANDARD PLATE active; positive | Test System: CHINESE HAMSTER V-79, Strain/Indicator: V-79/OUABAIN, Metabolic Activation: HAMSTER, HEPATOCYTES, Method: CELL-MEDIATED active; positive | Test System: CHINESE HAMSTER V-79, Strain/Indicator: V-79/OUABAIN, Metabolic Activation: HAMSTER, PANCREAS, ACINAR CELL-MEDIATED, Method: STANDARD PLATE active; positive
